Experimental data from publication PMC10175918 (Communications Biology, 2023).
Like-named read-outs stand apart in the source and are kept apart here.

Experiments:
Assay in all cases: TGFα-shedding assay-based GPCR screening with chimeric Gα subunit proteins
Assay type in all cases: cell-based
348 GPCRs [1] = target: 348 GPCRs (Homo sapiens, UniProt P41595); conditions: 10µM, Favipiravir 100μM
348 GPCRs [2] = target: T1, 348 GPCRs (Homo sapiens, UniProt Q8IZF5)
T1 construct: expressed in transfected cells; host or cells: HEK293A
T1 sequence (Q8IZF5 26-1079): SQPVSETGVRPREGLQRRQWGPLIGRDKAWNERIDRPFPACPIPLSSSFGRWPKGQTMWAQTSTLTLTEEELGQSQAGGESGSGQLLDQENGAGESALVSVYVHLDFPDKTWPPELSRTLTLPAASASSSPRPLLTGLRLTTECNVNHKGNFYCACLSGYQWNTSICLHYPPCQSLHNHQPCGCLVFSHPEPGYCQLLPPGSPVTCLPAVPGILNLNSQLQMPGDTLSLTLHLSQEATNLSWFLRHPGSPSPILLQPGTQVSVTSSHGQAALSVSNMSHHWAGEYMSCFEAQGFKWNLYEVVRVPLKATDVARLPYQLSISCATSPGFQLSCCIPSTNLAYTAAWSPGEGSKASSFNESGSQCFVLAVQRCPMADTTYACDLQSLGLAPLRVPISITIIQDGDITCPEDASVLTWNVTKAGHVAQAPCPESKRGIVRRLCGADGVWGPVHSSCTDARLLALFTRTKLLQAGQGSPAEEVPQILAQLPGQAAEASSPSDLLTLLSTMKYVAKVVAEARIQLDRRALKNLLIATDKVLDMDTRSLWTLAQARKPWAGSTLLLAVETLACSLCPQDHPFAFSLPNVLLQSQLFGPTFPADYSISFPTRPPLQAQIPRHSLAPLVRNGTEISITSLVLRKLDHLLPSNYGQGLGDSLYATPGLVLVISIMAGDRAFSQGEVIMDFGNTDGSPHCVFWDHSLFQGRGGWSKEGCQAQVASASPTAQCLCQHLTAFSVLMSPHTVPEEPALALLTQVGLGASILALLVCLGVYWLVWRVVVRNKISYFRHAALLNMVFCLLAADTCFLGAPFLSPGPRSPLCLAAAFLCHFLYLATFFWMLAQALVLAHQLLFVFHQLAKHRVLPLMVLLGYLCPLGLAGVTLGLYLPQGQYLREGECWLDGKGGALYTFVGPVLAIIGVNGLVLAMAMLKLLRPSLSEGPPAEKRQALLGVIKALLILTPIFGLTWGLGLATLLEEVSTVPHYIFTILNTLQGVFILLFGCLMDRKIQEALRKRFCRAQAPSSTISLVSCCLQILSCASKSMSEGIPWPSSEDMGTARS

348 GPCRs [3] = target: T2, 348 GPCRs (Homo sapiens, UniProt Q5T601)
T2 construct: expressed in transfected cells; host or cells: HEK293A
T2 sequence (Q5T601 20-910): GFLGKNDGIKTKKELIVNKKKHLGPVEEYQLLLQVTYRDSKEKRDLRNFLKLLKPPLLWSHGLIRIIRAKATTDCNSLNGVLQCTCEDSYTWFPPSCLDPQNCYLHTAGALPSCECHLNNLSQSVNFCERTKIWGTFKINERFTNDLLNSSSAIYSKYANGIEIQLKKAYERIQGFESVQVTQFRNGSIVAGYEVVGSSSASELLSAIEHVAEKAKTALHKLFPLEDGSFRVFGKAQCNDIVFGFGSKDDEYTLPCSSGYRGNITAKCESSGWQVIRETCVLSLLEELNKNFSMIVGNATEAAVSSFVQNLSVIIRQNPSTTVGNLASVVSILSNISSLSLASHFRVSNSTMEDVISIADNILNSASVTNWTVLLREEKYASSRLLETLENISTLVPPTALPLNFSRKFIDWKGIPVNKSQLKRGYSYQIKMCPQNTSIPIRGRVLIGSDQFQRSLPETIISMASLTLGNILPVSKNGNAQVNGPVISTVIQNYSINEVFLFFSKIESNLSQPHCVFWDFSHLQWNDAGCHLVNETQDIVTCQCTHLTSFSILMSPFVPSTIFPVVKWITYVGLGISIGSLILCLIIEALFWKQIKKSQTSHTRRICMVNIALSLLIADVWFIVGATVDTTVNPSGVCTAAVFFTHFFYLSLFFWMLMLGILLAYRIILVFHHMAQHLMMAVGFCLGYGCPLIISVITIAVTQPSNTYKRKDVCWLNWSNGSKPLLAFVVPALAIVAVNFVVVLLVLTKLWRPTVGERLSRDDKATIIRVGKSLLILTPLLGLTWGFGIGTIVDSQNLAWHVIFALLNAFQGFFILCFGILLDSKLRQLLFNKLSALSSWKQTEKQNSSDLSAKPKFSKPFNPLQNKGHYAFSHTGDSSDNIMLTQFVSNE

348 GPCRs [4] = target: T3, 348 GPCRs (Homo sapiens, UniProt Q8TDV5)
T3 construct: expressed in transfected cells; host or cells: HEK293A
T3 sequence (Q8TDV5 1-335): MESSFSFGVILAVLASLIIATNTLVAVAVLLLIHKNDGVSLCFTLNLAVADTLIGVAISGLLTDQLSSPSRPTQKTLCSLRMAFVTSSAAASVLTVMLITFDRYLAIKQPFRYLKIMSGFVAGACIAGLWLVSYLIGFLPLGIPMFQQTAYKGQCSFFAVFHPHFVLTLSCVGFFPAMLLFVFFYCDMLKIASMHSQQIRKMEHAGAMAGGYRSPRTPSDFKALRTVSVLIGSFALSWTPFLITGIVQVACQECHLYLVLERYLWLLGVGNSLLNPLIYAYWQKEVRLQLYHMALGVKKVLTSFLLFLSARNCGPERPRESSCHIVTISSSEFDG

348 GPCRs [5] = target: T4, 348 GPCRs (Homo sapiens, UniProt Q9NYV7); conditions: 10µM, Favipiravir 100μM
T4 construct: expressed in transfected cells; host or cells: HEK293A
T4 sequence (Q9NYV7 1-291): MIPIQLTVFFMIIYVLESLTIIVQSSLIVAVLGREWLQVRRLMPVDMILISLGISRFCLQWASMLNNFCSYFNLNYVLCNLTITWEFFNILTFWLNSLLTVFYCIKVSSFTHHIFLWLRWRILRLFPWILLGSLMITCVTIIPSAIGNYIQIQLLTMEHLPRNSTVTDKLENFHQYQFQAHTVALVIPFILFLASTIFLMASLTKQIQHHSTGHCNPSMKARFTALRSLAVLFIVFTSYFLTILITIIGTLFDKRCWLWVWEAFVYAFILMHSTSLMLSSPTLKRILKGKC

[6] = HTR2B (5-hydroxytryptamine (serotonin) receptor 2B), read-out: % GPCR activation compared to TPA
[7] = GPCR GPR113 (G-protein-coupled receptor 113 (ADGRF3)), read-out: % GPCR activation compared to TPA
[8] = GPCR GPR110 (G-protein-coupled receptor 110 (ADGRF1)), read-out: % GPCR activation compared to TPA
[9] = GPCR GPR119 (G protein-coupled receptor 119), read-out: % GPCR activation compared to TPA
[10] = TAS2R16 (taste receptor, type 2, member 16), read-out: % GPCR activation compared to TPA
[11] = read-out: % GPCR activation compared to TPA, HTR2B (5-hydroxytryptamine (serotonin) receptor 2B)
[12] = read-out: % GPCR activation compared to TPA, GPCR GPR113 (G-protein-coupled receptor 113 (ADGRF3))
[13] = read-out: % GPCR activation compared to TPA, GPCR GPR110 (G-protein-coupled receptor 110 (ADGRF1))
[14] = read-out: % GPCR activation compared to TPA, GPCR GPR119 (G protein-coupled receptor 119)
[15] = read-out: % GPCR activation compared to TPA, TAS2R16 (taste receptor, type 2, member 16)

Sequence of 348 GPCRs (Homo sapiens, UniProt P41595) (P41595 whole entry): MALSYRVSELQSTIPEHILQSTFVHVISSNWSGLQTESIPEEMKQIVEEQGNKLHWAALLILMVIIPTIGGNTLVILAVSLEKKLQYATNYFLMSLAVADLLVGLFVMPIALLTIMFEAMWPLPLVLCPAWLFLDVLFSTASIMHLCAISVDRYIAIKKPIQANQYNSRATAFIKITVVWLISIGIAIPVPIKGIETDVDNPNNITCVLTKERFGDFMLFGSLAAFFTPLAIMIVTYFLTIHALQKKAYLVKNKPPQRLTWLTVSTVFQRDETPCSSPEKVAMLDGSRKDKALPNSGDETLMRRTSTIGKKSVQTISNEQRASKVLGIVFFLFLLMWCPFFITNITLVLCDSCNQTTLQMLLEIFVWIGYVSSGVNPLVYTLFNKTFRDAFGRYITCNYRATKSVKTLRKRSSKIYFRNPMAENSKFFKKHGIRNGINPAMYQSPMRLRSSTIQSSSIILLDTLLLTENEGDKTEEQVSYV

SMILES | activation at 100 µM (348 GPCRs [1]; [6]) | activation at 10 µM (348 GPCRs [2]; [7]) | activation at 10 µM (348 GPCRs [3]; [8]) | activation at 10 µM (348 GPCRs [4]; [9]) | activation at 100 µM (348 GPCRs [5]; [10]) | activation at 100 µM (348 GPCRs [2]; GPCR GPR113 (G-protein-coupled receptor 113 (ADGRF3)), 100μM, read-out: % GPCR activation compared to TPA) | activation at 100 µM (348 GPCRs [3]; GPCR GPR110 (G-protein-coupled receptor 110 (ADGRF1)), 100μM, read-out: % GPCR activation compared to TPA) | activation at 100 µM (348 GPCRs [4]; GPCR GPR119 (G protein-coupled receptor 119), 100μM, read-out: % GPCR activation compared to TPA) | activation at 100 µM (348 GPCRs [1]; [11]) | activation at 10 µM (348 GPCRs [2]; [12]) | activation at 10 µM (348 GPCRs [3]; [13]) | activation at 10 µM (348 GPCRs [4]; [14]) | activation at 100 µM (348 GPCRs [5]; [15])
N#C[C@@]1(c2ccc3c(N)ncnn23)O[C@H](CO)[C@@H](O)[C@H]1O [GS441524] | 0.0796% | -1.08% | -1.67% | 5.33% | -2.06% |  |  |  |  |  |  |  | 
CCC(CC)COC(=O)[C@H](C)N[P@](=O)(OC[C@H]1O[C@@](C#N)(c2ccc3c(N)ncnn23)[C@H](O)[C@@H]1O)Oc1ccccc1 [remdesivir] |  |  |  |  |  |  |  |  | -4.14% | 0.66% | -1.5% | 7.14% | 0.556%
CC(C)OC(=O)[C@H](C)N[P@](=O)(OC[C@H]1O[C@@H](n2ccc(=O)[nH]c2=O)[C@](C)(F)[C@@H]1O)Oc1ccccc1 [sofosbuvir] |  |  |  |  |  |  |  |  | -0.398% | 0.111% | 0.252% | -6.04% | -1%

Further lines, with some results ahead:

activation at 100 µM (348 GPCRs [1]; [6]) | activation at 10 µM (348 GPCRs [2]; [7]) | activation at 10 µM (348 GPCRs [3]; [8]) | activation at 10 µM (348 GPCRs [4]; [9]) | activation at 100 µM (348 GPCRs [5]; [10]) | activation at 100 µM (348 GPCRs [2]; GPCR GPR113 (G-protein-coupled receptor 113 (ADGRF3)), 100μM, read-out: % GPCR activation compared to TPA) | activation at 100 µM (348 GPCRs [3]; GPCR GPR110 (G-protein-coupled receptor 110 (ADGRF1)), 100μM, read-out: % GPCR activation compared to TPA) | activation at 100 µM (348 GPCRs [4]; GPCR GPR119 (G protein-coupled receptor 119), 100μM, read-out: % GPCR activation compared to TPA) | SMILES | activation at 100 µM (348 GPCRs [1]; [11]) | activation at 10 µM (348 GPCRs [2]; [12]) | activation at 10 µM (348 GPCRs [3]; [13]) | activation at 10 µM (348 GPCRs [4]; [14]) | activation at 100 µM (348 GPCRs [5]; [15])
0.187% |  |  |  | 0.411% | -1.12% | -3.88% | 3.67% | NC(=O)c1nc(F)cnc1O [favipiravir, 6-fluoro-3-hydroxy-2-pyrazinecarboxamide] |  |  |  |  | 
-1.16% | -1.49% | -0.00488% | -26.9% | -0.65% |  |  |  | CC(C)C(=O)OC[C@H]1O[C@@H](n2ccc(NO)nc2=O)[C@H](O)[C@@H]1O [molnupiravir] |  |  |  |  | 
